SMILES	melting point [°C]
O=C(N[C@H](Cc1cccc(CC(F)(F)C(F)F)c1)[C@@H](O)c1ccc(F)cc1)c1cccc2c1C=CCCC2 (racemic) [Example 338, N-[(1RS,2SR)-2-(4-fluorophenyl)-2-hydroxy-1-[3-(2,2,3,3-tetrafluoropropyl)benzyl]ethyl]-6,7-dihydro-5H-benzo[a]cycloheptene-1-carboxamide]	165 to 166
O=C(N[C@H](Cc1cccc(C(F)(F)F)c1)[C@@H](O)c1ccc(F)cc1)C1CCCCC1 (racemic) [Example 138, N-((1RS,2SR)-2-(4-fluorophenyl)-2-hydroxy-1-((3-(trifluoromethyl)phenyl)methyl)ethyl)cyclohexanecarboxamide]	190 to 191
O=C(CCc1ccccc1)N[C@H](Cc1ccc(C(F)(F)F)cc1)[C@@H](O)c1ccccc1 (racemic) [Example 175, N-((1RS,2SR)-2-hydroxy-2-phenyl-1-((4-(trifluoromethyl)phenyl)methyl)ethyl)-3-phenylpropanamide]	147 to 148
O=C(NC(Cc1ccc(C(F)(F)F)cc1)C(O)c1ccc(F)cc1)c1cccnc1 (racemic) [Example 21, N-[2-(4-fluorophenyl)-2-hydroxy-1-[[4-(trifluoromethyl)phenyl]methyl]ethyl]-3-pyridinecarboxamide]	160 to 165
CCCCOc1ccc([C@H](O)[C@@H](Cc2cccc(OC(F)(F)C(F)F)c2)NC(=O)c2cccc3c2C=CCCC3)cc1 (racemic) [Example 244, N-{(1RS,2SR)-2-(4-butoxyphenyl)-2-hydroxy-1-[3-(1,1,2,2-tetrafluoroethoxy)benzyl]ethyl}-6,7-dihydro-5H-benzo[a][7]annulene-1-carboxamide]	126 to 127
O=C(N[C@H](Cc1cccc(OC(F)(F)C(F)F)c1)[C@@H](O)c1ccc(Cl)nc1)c1ccc(F)c2ccccc12 (racemic) [Example 331, N-[(1RS,2SR)-2-(6-chloropyridin-3-yl)-2-hydroxy-1-[3-(1,1,2,2-tetrafluoroethoxy)benzyl]ethyl]-4-fluoronaphthalene-1-carboxamide]	185 to 187
O=C(N[C@H](Cc1cccc(OC(F)(F)C(F)F)c1)[C@@H](O)c1ccc(Oc2cccnc2)cc1)c1cccc2c1C=CCCC2 (racemic) [Example 261, N-{(1RS,2SR)-2-hydroxy-2-[4-(pyridin-3-yloxy)phenyl]-1-[3-(1,1,2,2-tetrafluoroethoxy)benzyl]ethyl}-6,7-dihydro-5H-benzo[a][7]annulene-1-carboxamide]	133 to 134
CC(C)(C)Oc1ccc(C[C@@H](NC(=O)c2ccc(F)c3ccccc23)[C@@H](O)c2cccc(Cl)c2)cc1 (racemic) [Example 277, N-[(1RS,2SR)-1-(4-tert-butoxybenzyl)-2-(3-chlorophenyl)-2-hydroxyethyl]-4-fluoro-1-naphthamide]	161 to 162
O=C(N[C@H](Cc1cnc(C(F)(F)F)s1)[C@@H](O)c1ccc(F)cc1)c1ccc(F)c2ccccc12 (racemic) [Example 169, 4-fluoro-N-[(1RS,2SR)-2-(4-fluorophenyl)-2-hydroxy-1-[[2-(trifluoromethyl)-1,3-thiazol-5-yl]methyl]ethyl]naphthalene-1-carboxamide]	197 to 198
O=C(N[C@H](Cc1ccc(C(F)(F)F)cc1)[C@@H](O)c1ccc(Cl)cc1)c1ccc(F)c2ccccc12 (racemic) [Example 194, N-[(1RS,2SR)-2-(4-chlorophenyl)-2-hydroxy-1-[4-(trifluoromethyl)benzyl]ethyl]-4-fluoronaphthalene-1-carboxamide]	203 to 204
O=C(Nc1ccccc1)c1ccc([C@H](O)[C@@H](Cc2cccc(OC(F)(F)C(F)F)c2)NC(=O)c2cccc3c2C=CCCC3)cc1 (racemic) [Example 314, N-[(1RS,2SR)-2-[4-(anilinocarbonyl)phenyl]-2-hydroxy-1-[3-(1,1,2,2-tetrafluoroethoxy)benzyl]ethyl]-6,7-dihydro-5H-benzo[a]cycloheptene-1-carboxamide]	205 to 206

Continued, values first:

melting point [°C]	SMILES
148 to 149	CC(C)(C)OC(=O)N[C@H](Cc1cccc(C(F)C(C)(C)F)c1)[C@@H](O)c1ccc(F)cc1 (mixture of isomers) [Example 341, tert-butyl N-[(1RS,2SR)-1-[3-(1,2-difluoro-2-methylpropyl)benzyl]-2-(4-fluorophenyl)-2-hydroxyethyl]carbamate]
176 to 177	O=S(=O)(N[C@H](Cc1ccc(C(F)(F)F)cc1)[C@@H](O)c1ccc(F)cc1)c1cccc2ccccc12 (racemic) [Example 117, N-((1RS,2SR)-2-(4-fluorophenyl)-2-hydroxy-1-((4-(trifluoromethyl)phenyl)methyl)ethyl)-1-naphthalenesulfonamide]
83 to 84	O=C(N[C@H](Cc1ccc(C(F)(F)F)cc1)[C@@H](O)c1ccc(F)cc1)c1cccc2cccnc12 (racemic) [Example 80, N-((1RS,2SR)-2-(4-fluorophenyl)-2-hydroxy-1-((4-(trifluoromethyl)phenyl)methyl)ethyl)-8-quinolinecarboxamide]
112 to 113	CC(C)(C)COC(=O)N[C@H](Cc1ccc(C(F)(F)F)cc1)[C@@H](O)c1ccc(F)cc1 (racemic) [Example 116, neopentyl N-[(1RS,2SR)-2-(4-fluorophenyl)-2-hydroxy-1-[4-(trifluoromethyl)benzyl]ethyl]carbamate]
207 to 208	O=C(N[C@H](Cc1ccc(F)cc1)[C@@H](O)c1ccc(C(F)(F)F)cc1)c1cccc2ccccc12 (racemic) [Example 212, N-((1RS,2SR)-1-((4-fluorophenyl)methyl)-2-hydroxy-2-(4-(trifluoromethyl)phenyl)ethyl)-1-naphthalenecarboxamide]
110 to 111	O=C(CCCc1ccccc1)N[C@H](Cc1cccc(C(F)(F)F)c1)[C@@H](O)c1ccc(F)cc1 (racemic) [Example 139, N-((1RS,2SR)-2-(4-fluorophenyl)-2-hydroxy-1-((3-(trifluoromethyl)phenyl)methyl)ethyl)-4-phenylbutyramide]
202 to 203	O=C(N[C@H](Cc1ccc(C(F)(F)F)cc1)[C@@H](O)c1ccc(F)cc1)c1ccc(F)cc1 (racemic) [Example 55, 4-fluoro-N-((1RS,2SR)-2-(4-fluorophenyl)-2-hydroxy-1-((4-(trifluoromethyl)phenyl)methyl)ethyl)benzamide]
210 to 211	O=C(N[C@H](Cc1ccc(C(F)(F)F)cc1)[C@@H](O)c1ccc(F)cc1)c1cccc2c1CCCCC2 (racemic) [Example 42, N-[(1RS,2SR)-2-(4-fluorophenyl)-2-hydroxy-1-[4-(trifluoromethyl)benzyl]ethyl]-6,7,8,9-tetrahydro-5H-benzo[a]cycloheptene-1-carboxamide]
160 to 162	O=C(N[C@H](Cc1cccc(C(=O)C(F)(F)C(F)F)c1)[C@@H](O)c1ccc(F)cc1)c1ccc(F)c2ccccc12 (racemic) [Example 348, 4-fluoro-N-[(1RS,2SR)-2-(4-fluorophenyl)-2-hydroxy-1-[3-(2,2,3,3-tetrafluoropropionyl)benzyl]ethyl]naphthalene-1-carboxamide]
